In PubChem BioAssay (NCI):
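How tested: cells in 96-well plates exposed to compound for 48 hours at five concentrations. The concentration for 50% growth inhibition is given as GI50. At the TGI there is no net growth.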

Tests used:
Assay in all cases: inhibition of tumour cell growth, NCI panel, 48 h
[1] = test system: HOP-92 NSCLC
[2] = test system: SNB-19 CNS
[3] = test system: M14 melanoma
[4] = test system: SF-295 CNS
[5] = test system: ACHN renal
[6] = test system: UACC-62 melanoma
[7] = test system: IGROV1 ovarian
[8] = test system: NCI-H23 lung
[9] = test system: UO-31 renal
[10] = test system: OVCAR-8 ovarian
[11] = test system: NCI-H226 lung
[12] = test system: MOLT-4 leukemia
[13] = test system: SW-620 colon
[14] = test system: EKVX NSCLC
[15] = test system: 786-0 renal
[16] = test system: MALME-3M melanoma
[17] = test system: OVCAR-5 ovarian
[18] = test system: COLO 205 colon
[19] = test system: UACC-257 melanoma
[20] = test system: HL-60(TB) leukemia
[21] = test system: SK-MEL-28 melanoma
[22] = test system: SK-MEL-2 melanoma
[23] = test system: SF-268 CNS
[24] = test system: A549 NSCLC
[25] = test system: SN12C renal
[26] = test system: LXFL 529 NSCLC
[27] = test system: LOX IMVI melanoma
[28] = test system: RPMI-8226 leukemia
[29] = test system: KM12 colon
[30] = test system: SK-OV-3 ovarian
[31] = test system: HOP-18 NSCLC
[32] = test system: SF-539 CNS
[33] = test system: CCRF-CEM leukemia
[34] = test system: SR leukemia
[35] = test system: TK-10 renal
[36] = test system: HCT-15 colon
[37] = test system: DLD-1 colon
[38] = test system: K-562 leukemia
[39] = test system: RXF 393 renal
[40] = test system: HCC-2998 colon
[41] = test system: SNB-75 CNS
[42] = test system: SNB-78 CNS
[43] = test system: U251 CNS
[44] = test system: BT-549 breast
[45] = test system: HT29 colon
[46] = test system: OVCAR-4 ovarian
[47] = test system: MDA-MB-435
[48] = test system: NCI-H460 lung
[49] = test system: HS 578T breast
[50] = test system: DMS 114 small cell lung
[51] = test system: NCI-H522 lung
[52] = test system: SK-MEL-5 melanoma
[53] = test system: DMS 273 small cell lung
[54] = test system: NCI/ADR-RES ovarian
[55] = test system: MDA-N
[56] = test system: HOP-62 NSCLC
[57] = test system: MCF7 breast
[58] = test system: DU-145 prostate
[59] = test system: CAKI-1 renal
[60] = test system: A498 renal
[61] = test system: MDA-MB-231 breast
[62] = test system: HCT-116 colon
[63] = test system: T-47D breast
[64] = test system: KM20L2 colon
[65] = test system: OVCAR-3 ovarian
[66] = test system: PC-3 prostate

SMILES: CC(C)CC(=O)[O-].CC(C)CC(=O)[O-].N.N.N.N.[Co+3].[O-][Cl+3]([O-])([O-])O.[O-][Cl+3]([O-])([O-])[O-]
- GI50 [1]: > 100 µM
- TGI [1]: > 100 µM
- GI50 [2]: > 100 µM
- TGI [2]: > 100 µM
- GI50 [3]: > 100 µM
- TGI [3]: > 100 µM
- GI50 [4]: > 100 µM
- TGI [4]: > 100 µM
- GI50 [5]: > 100 µM
- TGI [5]: > 100 µM
- GI50 [6]: > 100 µM
- TGI [6]: > 100 µM
- GI50 [7]: > 100 µM
- TGI [7]: > 100 µM
- GI50 [8]: > 100 µM
- TGI [8]: > 100 µM
- GI50 [9]: > 100 µM
- TGI [9]: > 100 µM
- GI50 [10]: > 100 µM
- TGI [10]: > 100 µM
- GI50 [11]: > 100 µM
- TGI [11]: > 100 µM
- GI50 [12]: > 100 µM
- TGI [12]: > 100 µM
- GI50 [13]: > 100 µM
- TGI [13]: > 100 µM
- GI50 [14]: > 100 µM
- TGI [14]: > 100 µM
- GI50 [15]: > 100 µM
- TGI [15]: > 100 µM
- GI50 [16]: > 100 µM
- TGI [16]: > 100 µM
- GI50 [17]: > 100 µM
- TGI [17]: > 100 µM
- GI50 [18]: > 100 µM
- TGI [18]: > 100 µM
- GI50 [19]: > 100 µM
- TGI [19]: > 100 µM
- GI50 [20]: > 100 µM
- TGI [20]: > 100 µM
- GI50 [21]: > 100 µM
- TGI [21]: > 100 µM
- GI50 [22]: > 100 µM
- TGI [22]: > 100 µM
- GI50 [23]: > 100 µM
- TGI [23]: > 100 µM
- GI50 [24]: > 100 µM
- TGI [24]: > 100 µM
- GI50 [25]: > 100 µM
- TGI [25]: > 100 µM
- GI50 [26]: > 100 µM
- TGI [26]: > 100 µM
- GI50 [27]: > 100 µM
- TGI [27]: > 100 µM
- GI50 [28]: > 100 µM
- TGI [28]: > 100 µM
- GI50 [29]: > 100 µM
- TGI [29]: > 100 µM
- GI50 [30]: > 100 µM
- TGI [30]: > 100 µM
- GI50 [31]: > 100 µM
- TGI [31]: > 100 µM
- GI50 [32]: > 100 µM
- TGI [32]: > 100 µM
- GI50 [33]: > 100 µM
- TGI [33]: > 100 µM
- GI50 [34]: > 100 µM
- TGI [34]: > 100 µM
- GI50 [35]: > 100 µM
- TGI [35]: > 100 µM
- GI50 [36]: > 100 µM
- TGI [36]: > 100 µM
- GI50 [37]: > 100 µM
- TGI [37]: > 100 µM
- GI50 [38]: > 100 µM
- TGI [38]: > 100 µM
- GI50 [39]: > 100 µM
- TGI [39]: > 100 µM
- GI50 [40]: > 100 µM
- TGI [40]: > 100 µM
- GI50 [41]: > 100 µM
- TGI [41]: > 100 µM
- GI50 [42]: > 100 µM
- TGI [42]: > 100 µM

SMILES: O=C1C=C(Nc2cccnc2)c2ccccc2C1=O
- TGI [1]: 27.1 µM
- TGI [43]: 24.4 µM
- TGI [2]: 24.8 µM
- TGI [3]: 6.76 µM
- TGI [4]: 9.09 µM
- TGI [5]: 20.5 µM
- TGI [6]: 3.31 µM
- TGI [7]: 18.7 µM
- TGI [44]: 3.83 µM
- TGI [8]: 9.41 µM
- TGI [9]: 24.2 µM
- TGI [45]: 33.7 µM
- TGI [10]: 23.1 µM
- TGI [46]: 19.9 µM
- TGI [11]: 38.1 µM
- TGI [12]: 46.6 µM
- TGI [47]: 1390 nM
- TGI [13]: 18.7 µM
- TGI [14]: 26.7 µM
- TGI [15]: 23.8 µM
- TGI [48]: 12.5 µM
- TGI [16]: 5.35 µM
- TGI [49]: 8.33 µM
- TGI [17]: 18.4 µM
- TGI [18]: 38.6 µM
- TGI [50]: 5.01 µM
- TGI [19]: 4.48 µM
- TGI [51]: 15.5 µM
- TGI [52]: 2580 nM
- TGI [53]: > 39.6 µM
- TGI [20]: 23 µM
- TGI [54]: 23.9 µM
- TGI [21]: 13.5 µM
- TGI [22]: 25.1 µM
- TGI [55]: 1420 nM
- TGI [23]: 20.9 µM
- TGI [24]: 13.3 µM
- TGI [56]: 12.9 µM
- TGI [57]: 8.2 µM
- TGI [25]: 21.5 µM
- TGI [26]: > 51.3 µM
- TGI [27]: 9.9 µM
- TGI [28]: 51.3 µM
- TGI [58]: 14.1 µM
- TGI [29]: 23.4 µM
- TGI [59]: 18.6 µM
- TGI [30]: 22.1 µM
- TGI [31]: 22 µM
- TGI [32]: 8.41 µM
- TGI [33]: 51.9 µM
- TGI [34]: 37 µM
- TGI [35]: 34.5 µM
- TGI [60]: 22.3 µM
- TGI [61]: 20.4 µM
- TGI [36]: 29.3 µM
- TGI [37]: 20 µM
- TGI [38]: 22.7 µM
- TGI [62]: 25.6 µM
- TGI [39]: 38 µM
- TGI [63]: 43.8 µM
- TGI [64]: > 62.3 µM
- TGI [40]: 30.5 µM
- TGI [41]: 5.45 µM
- TGI [42]: 38 µM
- TGI [65]: 11.6 µM
- TGI [66]: 52.4 µM
